Several values for one entry are separate records, joined by “and”; a condition that tells them apart may be missing. Equal entries are not always repeated. Activity calls are given as the source filed them.
Key:
[1] = target: T1, Beta-2 adrenergic receptor (Homo sapiens, UniProt P07550); assay: Dose response for HTS for Beta-2AR agonists via FAP method from Powderset1.; assay type: functional
[2] = target: T1, Beta-2 adrenergic receptor; assay: beta2AR agonists driving receptor internalization, dose response, cell-based, FAP fluorogen, flow cytometry, cherry pick 1 (AID 588763); assay type: functional
[3] = target: T2, Replicative DNA helicase DnaB (Mycobacterium tuberculosis, UniProt P9WMR3); assay: DnaB intein splicing inhibitors, dose response, biochemical, cell-free fluorescence (AID 449749); assay type: functional
T2 sequence (P9WMR3 whole entry): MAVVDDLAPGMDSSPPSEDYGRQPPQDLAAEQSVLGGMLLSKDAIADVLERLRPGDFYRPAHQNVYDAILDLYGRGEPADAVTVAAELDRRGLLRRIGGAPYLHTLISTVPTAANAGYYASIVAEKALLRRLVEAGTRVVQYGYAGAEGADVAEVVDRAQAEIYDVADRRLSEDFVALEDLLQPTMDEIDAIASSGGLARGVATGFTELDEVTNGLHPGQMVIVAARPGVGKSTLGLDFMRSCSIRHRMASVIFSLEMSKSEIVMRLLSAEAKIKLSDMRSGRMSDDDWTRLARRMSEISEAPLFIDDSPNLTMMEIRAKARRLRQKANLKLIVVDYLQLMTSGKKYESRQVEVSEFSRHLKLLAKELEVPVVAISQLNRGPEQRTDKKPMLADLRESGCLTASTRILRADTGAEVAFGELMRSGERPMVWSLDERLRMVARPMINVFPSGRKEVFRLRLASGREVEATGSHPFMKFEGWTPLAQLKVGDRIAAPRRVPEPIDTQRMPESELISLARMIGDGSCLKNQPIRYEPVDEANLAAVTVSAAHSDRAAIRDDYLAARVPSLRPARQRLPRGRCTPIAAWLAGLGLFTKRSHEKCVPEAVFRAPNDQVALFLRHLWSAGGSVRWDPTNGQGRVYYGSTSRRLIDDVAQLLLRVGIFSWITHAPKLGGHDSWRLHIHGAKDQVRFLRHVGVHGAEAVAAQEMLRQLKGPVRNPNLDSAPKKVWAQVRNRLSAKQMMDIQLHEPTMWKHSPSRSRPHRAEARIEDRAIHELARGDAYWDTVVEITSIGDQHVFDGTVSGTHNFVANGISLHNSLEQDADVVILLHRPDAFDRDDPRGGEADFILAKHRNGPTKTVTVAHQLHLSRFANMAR

Vero = Vero cell cytotoxicity, cytotoxicity control for flavivirus capping enzyme inhibitors (AID 588742); assay type: functional; conditions: Chlorocebus sabaeus
Protein RecA = target: T3, Protein RecA (Mycobacterium tuberculosis, UniProt P9WHJ3); assay: Fluorescence Cell-Free Homogeneous Dose Retest to Identify Inhibitors of RecA-Intein Splicing Activity. [Related pubchem assays (depositor defined):AID2097, AID2223, AID489010, AID492950]; assay type: functional
T3 sequence (P9WHJ3 whole entry): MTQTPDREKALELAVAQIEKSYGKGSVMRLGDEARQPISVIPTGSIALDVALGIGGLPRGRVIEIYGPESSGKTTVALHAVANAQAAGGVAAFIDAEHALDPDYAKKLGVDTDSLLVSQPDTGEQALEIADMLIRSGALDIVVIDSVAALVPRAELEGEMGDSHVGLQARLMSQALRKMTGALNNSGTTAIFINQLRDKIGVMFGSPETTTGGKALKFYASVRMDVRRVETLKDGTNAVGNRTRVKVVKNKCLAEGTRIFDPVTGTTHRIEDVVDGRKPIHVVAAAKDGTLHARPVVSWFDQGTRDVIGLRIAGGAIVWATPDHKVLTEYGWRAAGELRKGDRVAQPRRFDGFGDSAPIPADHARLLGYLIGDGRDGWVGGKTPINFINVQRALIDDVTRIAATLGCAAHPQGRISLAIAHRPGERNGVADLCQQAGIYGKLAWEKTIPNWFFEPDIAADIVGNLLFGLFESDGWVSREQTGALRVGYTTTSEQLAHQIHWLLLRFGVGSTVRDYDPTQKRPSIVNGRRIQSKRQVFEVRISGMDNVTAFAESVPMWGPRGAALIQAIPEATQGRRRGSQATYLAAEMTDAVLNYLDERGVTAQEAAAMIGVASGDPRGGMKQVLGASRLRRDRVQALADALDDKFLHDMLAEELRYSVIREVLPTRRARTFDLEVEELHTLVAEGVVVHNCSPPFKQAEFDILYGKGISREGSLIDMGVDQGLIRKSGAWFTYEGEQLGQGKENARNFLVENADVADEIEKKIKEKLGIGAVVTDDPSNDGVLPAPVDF

Genome polyprotein = Genome polyprotein (dengue virus type 2, UniProt P29990); assay: Dengue-2 NS5 methyltransferase inhibitors, primary screen, biochemical, confirmation dose response (AID 588689); assay type: functional
[4] = target: Hepatocyte nuclear factor 4-alpha (Homo sapiens, UniProt P41235); assay type: functional, cell-based;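 further: biochemical luminescence-based dose-response counterscreen measuring inhibition of HNF4 dimerization, run alongside a screen for blockers of ABHD5–perilipin-5 interaction; split luciferase complementation of HNF4 fusion proteins in cell lysate measuring dimerization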
Beta-lactamase [5] = target: Beta-lactamase (Salmonella choleraesuis (strain SC-B67), UniProt Q5J463); assay: Epi-absorbance-based counterscreen for selective VIM-2 inhibitors: dose response biochemical high throughput screening assay to identify inhibitors of TEM-1 serine-beta-lactamase.
Beta-lactamase [6] = target: T4, Beta-lactamase (Pseudomonas aeruginosa, UniProt Q79MP6); assay: IMP-1 metallo-beta-lactamase inhibitors, dose response, selectivity assay for VIM-2 inhibitor project, biochemical, epi-absorbance (AID 1920)
Beta-lactamase [7] = target: T4, Beta-lactamase; assay: […] counterscreen for selective VIM-2 inhibitors: dose response biochemical high throughput screening assay to identify inhibitors of IMP-1 metallo-beta-lactamase.
[8] = MDA-MB-231 cell growth inhibition, dose response, cytotoxicity control for RAD54 inhibitor project, CellTiter-Glo luminescence, cherry-pick (AID 651692); assay type: functional, cell-based
[9] = target: T5, DNA repair and recombination protein RAD54-like (Homo sapiens, UniProt Q92698); assay: inhibitors of human RAD54 branch migration, confirmation, biochemical, fluorescence, cherry-picked samples, dose series (AID 651657); assay type: functional
T5 sequence (Q92698 whole entry): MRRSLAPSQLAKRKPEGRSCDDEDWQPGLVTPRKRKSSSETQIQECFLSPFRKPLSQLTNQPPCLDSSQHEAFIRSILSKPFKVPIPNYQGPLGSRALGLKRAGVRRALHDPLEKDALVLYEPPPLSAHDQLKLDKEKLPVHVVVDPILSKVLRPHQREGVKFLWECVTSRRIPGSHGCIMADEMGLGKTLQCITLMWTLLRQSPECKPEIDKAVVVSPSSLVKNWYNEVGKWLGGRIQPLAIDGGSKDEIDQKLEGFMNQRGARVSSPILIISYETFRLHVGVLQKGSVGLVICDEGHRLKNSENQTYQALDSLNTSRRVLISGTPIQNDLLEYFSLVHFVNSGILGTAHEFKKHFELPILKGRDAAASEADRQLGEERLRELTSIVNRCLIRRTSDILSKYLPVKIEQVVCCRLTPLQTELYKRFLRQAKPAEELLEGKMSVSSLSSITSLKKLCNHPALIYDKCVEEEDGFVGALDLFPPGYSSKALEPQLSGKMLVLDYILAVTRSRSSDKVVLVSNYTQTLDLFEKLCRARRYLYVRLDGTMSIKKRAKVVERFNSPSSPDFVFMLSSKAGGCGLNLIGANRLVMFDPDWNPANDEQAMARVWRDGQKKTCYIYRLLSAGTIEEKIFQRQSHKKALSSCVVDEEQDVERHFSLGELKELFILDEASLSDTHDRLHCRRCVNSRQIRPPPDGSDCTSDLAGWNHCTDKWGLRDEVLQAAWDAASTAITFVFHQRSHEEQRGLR

[10] = tested on: Streptococcus sp. 'group A'; assay: growth inhibition of control SK(-) GAS strain, dose response, counter-screen for streptokinase expression inhibitor project, luminescence, kanamycin, BacTiterGlo, confirmation (AID 1900); assay type: functional, organism-based
Streptokinase A = target: T6, Streptokinase A (Streptococcus pyogenes serotype M1, UniProt P10520); assay: S. pyogenes streptokinase expression inhibitors, potency, dose response, plasminogen activation absorbance, OD405 (AID 1914); assay type: functional, Streptococcus pyogenes M1 GAS;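 further: secreted streptokinase activity via plasminogen activation per viability signal from cell pellet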
T6 sequence (P10520 whole entry): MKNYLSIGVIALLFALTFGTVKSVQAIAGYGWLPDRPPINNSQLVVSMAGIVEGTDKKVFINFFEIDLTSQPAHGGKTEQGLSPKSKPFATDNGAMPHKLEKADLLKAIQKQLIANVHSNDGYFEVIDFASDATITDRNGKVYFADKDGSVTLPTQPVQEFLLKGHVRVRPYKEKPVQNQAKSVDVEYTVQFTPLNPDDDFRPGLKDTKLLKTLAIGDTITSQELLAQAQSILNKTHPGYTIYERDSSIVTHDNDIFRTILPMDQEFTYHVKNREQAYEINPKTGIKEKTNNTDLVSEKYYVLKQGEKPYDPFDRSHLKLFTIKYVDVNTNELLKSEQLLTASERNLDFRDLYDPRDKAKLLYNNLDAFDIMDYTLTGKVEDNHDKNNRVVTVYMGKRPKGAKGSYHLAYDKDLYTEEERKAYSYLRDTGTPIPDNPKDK

[11] = inhibitors of intracellular T. cruzi replication, confirmation, NIH3T3 host cells, beta-gal luminescence (AID 2044); assay type: functional, cell-based;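 further: intracellular parasites grown in NIH/3T3 mouse fibroblasts as host cells; luminescent beta-galactosidase reporter signal from transgenic T. cruzi replicating inside host cells; inhibitors lower the luminescence signal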
[12] = cytotoxicity toward NIH3T3 fibroblasts, dose response, counter-screen, cell-based, ATP luminescence, mouse fibroblasts (AID 2010); assay type: functional;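 further: cells exposed to compound for about 90 hours before reading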
Streptococcus = assay: Group A Streptococcus viability loss, dose response, counter-screen for streptokinase expression inhibitor project, luminescence, BacTiterGlo (AID 1915); assay type: functional, organism-based;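 further: potency for reduction of bacterial viability or growth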
[13] = target: T7, ATP-dependent translocase ABCB1 (Homo sapiens, UniProt P08183); assay: ABCB1 efflux pump inhibitor potency, dose response, Jurkat-DNR cells, JC-1, flow cytometry (AID 1689); assay type: functional
[14] = target: Broad substrate specificity ATP-binding cassette transporter ABCG2 (Homo sapiens, UniProt Q9UNQ0); assay: ABCG2 efflux pump inhibitors, dose response, Ig-MXP3 cells, flow cytometry (AID 1690); assay type: functional
Estrogen receptor = target: T8, Estrogen receptor (Homo sapiens, UniProt P03372);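 further: potency for inhibiting coactivator peptide recruitment to the receptor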
T8 sequence (P03372 whole entry): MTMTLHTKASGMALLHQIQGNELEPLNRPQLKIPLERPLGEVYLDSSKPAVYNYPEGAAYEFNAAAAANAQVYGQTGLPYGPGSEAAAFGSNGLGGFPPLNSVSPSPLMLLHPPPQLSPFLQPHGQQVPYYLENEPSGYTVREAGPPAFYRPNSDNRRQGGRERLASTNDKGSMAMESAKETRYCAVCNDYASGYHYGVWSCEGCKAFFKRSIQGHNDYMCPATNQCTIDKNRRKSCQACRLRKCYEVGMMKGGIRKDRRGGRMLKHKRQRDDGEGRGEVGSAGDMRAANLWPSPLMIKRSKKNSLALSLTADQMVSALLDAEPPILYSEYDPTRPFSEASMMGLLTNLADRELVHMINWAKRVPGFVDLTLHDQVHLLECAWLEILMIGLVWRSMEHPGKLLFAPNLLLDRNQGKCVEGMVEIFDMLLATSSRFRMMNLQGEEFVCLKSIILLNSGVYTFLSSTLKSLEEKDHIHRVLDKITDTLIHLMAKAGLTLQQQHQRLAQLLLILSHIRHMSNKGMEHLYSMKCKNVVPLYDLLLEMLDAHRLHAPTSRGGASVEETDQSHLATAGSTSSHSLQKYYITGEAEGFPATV

[15] = target: Arf-GAP with SH3 domain, ANK repeat and PH domain-containing protein 1 (Homo sapiens, UniProt Q9ULH1); assay type: functional;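 further: biochemical fluorescence polarization dose–response screen measuring inhibition of ASAP1; ASAP1 GAP domain stimulating GTP hydrolysis by truncated human ARF1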
[16] = Vero cell cytotoxicity, cytotoxicity control for M. tuberculosis inhibitor project, purified and synthesized samples, set 8 (AID 602431); assay type: functional; conditions: Mycobacterium tuberculosis
[17] = target: T7, ATP-dependent translocase ABCB1; assay: ABCG2 efflux pump inhibitor potency, dose response, Ig-MXP3 cells, JC-1, flow cytometry, set 2 (AID 504566); assay type: functional; conditions: read-out: EC50_MICROM_;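 further: flow cytometry median green fluorescence of retained JC-1 dye; potency of efflux pump inhibition measured as rising substrate retention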
[18] = target: T7, ATP-dependent translocase ABCB1; assay: ABCB1 efflux inhibitor potency, dose response, Jurkat-DNR cells, JC-1, flow cytometry, set 2 (AID 504569); assay type: functional; conditions: read-out: EC50_MICROM_;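 further: potency of pump inhibitors that raise cellular JC-1 green fluorescence up to the nicardipine level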
[19] = target: Eukaryotic translation initiation factor 4E (Mus musculus, UniProt P63073); assay: eIF4E–eIF4G protein interaction inhibitors, dose response, biochemical, TR-FRET (AID 855); assay type: functional;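 further: potency for disrupting eIF4E binding to eIF4GI seen as loss of FRET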
[20] = Counterscreen for […] of the human trace amine associated receptor 1 (TAAR1): Fluorescence-based cell-based high throughput dose response assay to identify nonselective Ga16 agonists.; assay type: functional
[21] = Counterscreen for antagonists of the human trace amine associated receptor 1 (hTAAR1): Fluorescence-based cell-based high throughput dose response assay to identify nonselective Ga16 antagonists.; assay type: functional

T7 sequence (P08183 whole entry): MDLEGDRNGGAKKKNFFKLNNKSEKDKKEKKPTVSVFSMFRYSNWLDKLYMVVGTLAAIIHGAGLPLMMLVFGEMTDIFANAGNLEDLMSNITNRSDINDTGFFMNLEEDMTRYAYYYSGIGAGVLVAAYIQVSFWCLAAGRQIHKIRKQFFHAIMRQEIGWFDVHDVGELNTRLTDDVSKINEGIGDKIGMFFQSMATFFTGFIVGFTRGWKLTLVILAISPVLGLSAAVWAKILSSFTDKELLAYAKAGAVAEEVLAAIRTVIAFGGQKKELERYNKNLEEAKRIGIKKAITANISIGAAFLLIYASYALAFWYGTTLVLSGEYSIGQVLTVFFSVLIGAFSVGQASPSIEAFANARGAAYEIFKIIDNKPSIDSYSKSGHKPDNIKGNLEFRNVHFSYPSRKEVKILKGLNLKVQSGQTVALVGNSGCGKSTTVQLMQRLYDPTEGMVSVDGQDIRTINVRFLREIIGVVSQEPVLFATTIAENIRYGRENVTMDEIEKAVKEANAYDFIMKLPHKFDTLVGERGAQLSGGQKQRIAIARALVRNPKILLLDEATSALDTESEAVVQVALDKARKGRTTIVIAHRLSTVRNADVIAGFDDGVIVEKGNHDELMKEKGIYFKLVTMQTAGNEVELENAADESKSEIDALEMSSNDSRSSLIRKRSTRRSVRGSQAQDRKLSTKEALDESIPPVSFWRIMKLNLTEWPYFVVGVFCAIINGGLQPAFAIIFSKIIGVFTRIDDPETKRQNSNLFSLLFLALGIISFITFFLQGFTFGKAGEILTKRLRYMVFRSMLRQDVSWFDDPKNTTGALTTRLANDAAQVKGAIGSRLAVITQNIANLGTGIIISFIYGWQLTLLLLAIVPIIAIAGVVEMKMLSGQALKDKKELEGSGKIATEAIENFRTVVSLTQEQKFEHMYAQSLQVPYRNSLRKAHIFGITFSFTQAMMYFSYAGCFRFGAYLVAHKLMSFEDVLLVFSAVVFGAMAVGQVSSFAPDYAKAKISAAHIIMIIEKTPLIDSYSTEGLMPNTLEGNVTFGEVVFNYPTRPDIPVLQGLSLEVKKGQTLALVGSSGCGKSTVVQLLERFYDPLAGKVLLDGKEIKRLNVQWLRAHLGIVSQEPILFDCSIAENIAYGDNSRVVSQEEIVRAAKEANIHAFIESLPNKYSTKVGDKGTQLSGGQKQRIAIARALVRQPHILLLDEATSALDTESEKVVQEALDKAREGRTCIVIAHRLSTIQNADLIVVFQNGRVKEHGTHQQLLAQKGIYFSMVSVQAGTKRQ
T1 sequence (P07550 whole entry): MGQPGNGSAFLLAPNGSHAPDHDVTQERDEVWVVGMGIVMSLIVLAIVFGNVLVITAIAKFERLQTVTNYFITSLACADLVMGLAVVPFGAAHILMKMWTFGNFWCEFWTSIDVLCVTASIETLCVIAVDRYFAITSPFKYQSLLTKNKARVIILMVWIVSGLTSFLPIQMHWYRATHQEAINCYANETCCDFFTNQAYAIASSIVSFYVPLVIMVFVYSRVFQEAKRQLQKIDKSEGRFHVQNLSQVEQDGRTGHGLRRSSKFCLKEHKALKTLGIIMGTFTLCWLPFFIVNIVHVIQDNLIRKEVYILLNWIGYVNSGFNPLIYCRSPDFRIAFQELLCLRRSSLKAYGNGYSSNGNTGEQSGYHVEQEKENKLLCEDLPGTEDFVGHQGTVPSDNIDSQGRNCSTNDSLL
T4 sequence (Q79MP6 whole entry): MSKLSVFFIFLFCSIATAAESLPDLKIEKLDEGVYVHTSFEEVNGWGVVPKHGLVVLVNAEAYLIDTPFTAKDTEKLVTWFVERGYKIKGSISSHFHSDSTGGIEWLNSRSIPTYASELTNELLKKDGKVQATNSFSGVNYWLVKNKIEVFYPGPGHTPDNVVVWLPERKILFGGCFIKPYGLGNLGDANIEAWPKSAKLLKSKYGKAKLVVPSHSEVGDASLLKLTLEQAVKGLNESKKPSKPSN
Genome polyprotein, sequence (P29990 2492-3391 limits assumed): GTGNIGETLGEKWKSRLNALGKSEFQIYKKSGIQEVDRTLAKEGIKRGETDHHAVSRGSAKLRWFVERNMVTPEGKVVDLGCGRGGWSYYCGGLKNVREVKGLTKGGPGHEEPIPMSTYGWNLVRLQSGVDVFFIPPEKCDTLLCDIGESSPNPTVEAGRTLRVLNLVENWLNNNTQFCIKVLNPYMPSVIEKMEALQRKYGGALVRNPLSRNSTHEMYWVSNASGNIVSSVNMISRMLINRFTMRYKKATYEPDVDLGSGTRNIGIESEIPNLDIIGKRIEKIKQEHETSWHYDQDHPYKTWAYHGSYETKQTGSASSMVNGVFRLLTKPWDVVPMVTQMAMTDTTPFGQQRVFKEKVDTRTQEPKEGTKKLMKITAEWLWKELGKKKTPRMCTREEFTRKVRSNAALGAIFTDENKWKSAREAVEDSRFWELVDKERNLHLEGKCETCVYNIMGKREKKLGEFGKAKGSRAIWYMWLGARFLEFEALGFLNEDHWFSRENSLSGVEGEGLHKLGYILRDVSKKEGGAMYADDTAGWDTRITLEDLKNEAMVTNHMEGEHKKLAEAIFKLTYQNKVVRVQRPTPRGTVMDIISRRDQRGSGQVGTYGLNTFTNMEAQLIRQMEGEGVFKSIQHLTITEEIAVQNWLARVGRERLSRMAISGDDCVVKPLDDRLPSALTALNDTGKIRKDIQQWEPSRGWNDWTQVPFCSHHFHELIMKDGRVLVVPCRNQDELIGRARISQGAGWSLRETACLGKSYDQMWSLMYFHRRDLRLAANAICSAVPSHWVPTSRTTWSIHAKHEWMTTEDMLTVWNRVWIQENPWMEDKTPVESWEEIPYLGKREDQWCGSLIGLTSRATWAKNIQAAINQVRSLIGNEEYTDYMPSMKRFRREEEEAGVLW
Hepatocyte nuclear factor 4-alpha, sequence (P41235 whole entry, the tested form may be a part): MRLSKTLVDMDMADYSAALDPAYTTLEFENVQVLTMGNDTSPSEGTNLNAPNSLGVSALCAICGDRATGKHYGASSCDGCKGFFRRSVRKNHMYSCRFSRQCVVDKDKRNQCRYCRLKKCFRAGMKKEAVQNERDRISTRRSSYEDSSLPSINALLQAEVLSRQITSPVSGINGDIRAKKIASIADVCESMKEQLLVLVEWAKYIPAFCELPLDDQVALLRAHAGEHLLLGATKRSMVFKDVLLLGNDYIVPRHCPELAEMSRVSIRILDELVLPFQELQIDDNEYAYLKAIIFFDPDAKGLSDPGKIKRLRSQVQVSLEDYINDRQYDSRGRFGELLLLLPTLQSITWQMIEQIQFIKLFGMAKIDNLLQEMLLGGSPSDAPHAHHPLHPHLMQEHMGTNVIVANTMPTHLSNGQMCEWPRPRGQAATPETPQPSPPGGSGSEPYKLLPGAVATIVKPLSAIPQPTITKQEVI
Arf-GAP with SH3 domain, ANK repeat and PH domain-containing protein 1, sequence (Q9ULH1 whole entry, the tested form may be a part): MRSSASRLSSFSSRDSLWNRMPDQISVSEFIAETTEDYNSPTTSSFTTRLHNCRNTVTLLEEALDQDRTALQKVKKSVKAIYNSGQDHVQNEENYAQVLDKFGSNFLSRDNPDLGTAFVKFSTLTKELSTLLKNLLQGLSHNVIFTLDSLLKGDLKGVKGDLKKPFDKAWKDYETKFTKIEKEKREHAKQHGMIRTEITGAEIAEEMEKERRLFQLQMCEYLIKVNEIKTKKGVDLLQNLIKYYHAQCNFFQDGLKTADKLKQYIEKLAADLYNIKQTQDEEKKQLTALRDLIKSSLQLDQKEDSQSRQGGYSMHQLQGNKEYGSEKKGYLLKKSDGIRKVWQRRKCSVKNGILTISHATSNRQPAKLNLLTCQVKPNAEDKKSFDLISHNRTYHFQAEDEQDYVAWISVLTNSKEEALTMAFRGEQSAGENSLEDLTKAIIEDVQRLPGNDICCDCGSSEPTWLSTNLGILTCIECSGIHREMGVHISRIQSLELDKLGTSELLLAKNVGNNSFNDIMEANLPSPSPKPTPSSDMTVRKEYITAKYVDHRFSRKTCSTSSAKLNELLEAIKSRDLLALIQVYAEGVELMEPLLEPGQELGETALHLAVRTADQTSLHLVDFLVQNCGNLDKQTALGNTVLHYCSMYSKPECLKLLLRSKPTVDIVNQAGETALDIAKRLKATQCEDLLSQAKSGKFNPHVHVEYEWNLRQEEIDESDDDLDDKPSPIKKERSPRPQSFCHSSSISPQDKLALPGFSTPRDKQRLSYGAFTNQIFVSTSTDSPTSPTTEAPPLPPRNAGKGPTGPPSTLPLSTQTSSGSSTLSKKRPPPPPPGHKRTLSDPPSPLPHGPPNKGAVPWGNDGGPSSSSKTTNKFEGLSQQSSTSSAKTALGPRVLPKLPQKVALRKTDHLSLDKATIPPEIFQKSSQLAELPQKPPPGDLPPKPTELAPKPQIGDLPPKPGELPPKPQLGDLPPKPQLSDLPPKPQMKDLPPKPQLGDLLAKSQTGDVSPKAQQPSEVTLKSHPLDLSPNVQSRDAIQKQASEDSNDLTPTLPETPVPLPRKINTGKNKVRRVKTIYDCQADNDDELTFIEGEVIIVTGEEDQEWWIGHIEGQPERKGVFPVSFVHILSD
Beta-lactamase (Salmonella choleraesuis (strain SC-B67), UniProt Q5J463), sequence (Q5J463 whole entry): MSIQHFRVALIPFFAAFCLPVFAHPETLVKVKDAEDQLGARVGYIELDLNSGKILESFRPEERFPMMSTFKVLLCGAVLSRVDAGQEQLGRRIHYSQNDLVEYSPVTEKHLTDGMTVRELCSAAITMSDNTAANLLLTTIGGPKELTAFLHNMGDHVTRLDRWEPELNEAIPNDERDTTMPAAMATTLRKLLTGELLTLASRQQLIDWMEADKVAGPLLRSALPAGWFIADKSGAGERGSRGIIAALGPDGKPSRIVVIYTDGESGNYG
Eukaryotic translation initiation factor 4E, sequence (P63073 whole entry): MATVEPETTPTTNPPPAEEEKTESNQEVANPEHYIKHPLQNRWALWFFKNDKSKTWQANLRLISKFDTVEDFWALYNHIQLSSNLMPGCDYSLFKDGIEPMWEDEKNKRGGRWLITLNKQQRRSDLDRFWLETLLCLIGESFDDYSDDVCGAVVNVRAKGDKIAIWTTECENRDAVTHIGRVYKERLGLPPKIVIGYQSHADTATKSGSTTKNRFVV

## CN(CC(=O)N1CCN(c2ccccn2)CC1)S(=O)(=O)c1ccc(Br)cc1
[1]
  EC50: 19.1 nM (active)
[2]
  EC50: 82.8 nM (active) and 35.6 nM (active)

## CC(=O)Oc1c(Br)cc(N(C(C)=O)S(=O)(=O)c2ccccc2)c2ccccc12
[3]
  AC50: 3.76 µM (active)
Vero
  CC50: 39.8 µM (active)
Protein RecA
  EC50: 2.81 µM (active)
Genome polyprotein
  IC50: 49.8 µM (active)
[4]
  IC50: 6.11 µM (active)

## O=C(CSc1nnc(NC(=O)c2ccccc2)s1)NCc1ccco1
Beta-lactamase [5]
  IC50: > 59.6 µM (inactive)
Beta-lactamase [6]
  IC50: > 59.6 µM (inactive)
Beta-lactamase [7]
  IC50: > 59.6 µM (inactive)

## CCOC(=O)N1CCN(S(=O)(=O)c2ccc(C(=O)Nc3sc4c(c3C(=O)OC)CCN(C)C4)cc2)CC1
[8]
  AC50: 17.1 µM (active)
[9]
  AC50: 16.8 µM (active)

## COc1ccc(-c2nn(-c3ccccc3)cc2/C=C/C(=O)N2CCN(c3ccccn3)CC2)cc1
[10]
  EC50: 3.86 µM (active)
Streptokinase A
  EC50: > 150 µM (not active)
[11]
  EC50: 2.34 µM (active)
[12]
  EC50: > 60 µM (not active)
Streptococcus
  EC50: 39.3 µM (active)
[13]
  EC50: 1.64 µM (active)
[14]
  EC50: 410 nM (active)

## COc1ccc2c(c1)CC/C(=C\c1ccc(OC)c(Cn3nc(C)cc3C)c1)C2=O
Estrogen receptor
  IC50: > 50 µM (not active)
[15]
  IC50: 26.8 µM (inactive)

## O=C(c1ccc(CNc2c(N3CCCC3)c(=O)c2=O)cc1)N1CCC(c2ccccc2)CC1
[16]
  CC50: > 100 µM (inconclusive)

## COc1ccc(-c2cc3nc(C)cc(N4CCN(C(=O)c5cccnc5)CC4)n3n2)cc1
[17]
  EC50: 10.7 µM (active)
[18]
  EC50: 19 µM (inactive)

## Cc1ccc(-n2c(C)cc(/C=N/Nc3ccc([N+](=O)[O-])cn3)c2C)cc1
[19]
  IC50: > 64 µM (inactive)
[20]
  EC50: > 29.9 µM (inactive)
[21]
  IC50: > 29.9 µM (inactive)
